Several values for one entry are separate records, joined by “and”; a condition that tells them apart may be missing. Identical values can stand only once. Like-named read-outs stand apart in the source and are kept apart here.
Columns and labels:
[1] = Partition coefficients n-octanol/deionized water and n-octanol/PBS; type: physicochemical; conditions: 24 hours; for Log KOPBS / O/PBS Coefficient (KOPBS): n-octanol/PBS pH 7.4, 37° C.; for Log KOW / O/W Coefficient (KOW): n-octanol/deionized water, 37° C.
Method: The partition coefficients for all somatostatin-fatty acid salts in either n-octanol/deionized water or n-octanol/PBS (pH 7.4) were determined. The partition coefficient is the concentration of Compound A or Compound B in the n-octanol phase divided by the concentration in the aqueous or PBS phase.
An accurately weighed sample of each salt was placed into 4 ml HPLC vials sealed with caps containing pierceable silicone septa and dissolved in 2 ml n-octanol. Two ml of either deionized water or PBS were added to each sample; the vials were vortexed vigorously and incubated at 37° C. with agitation for 24 hours in a shaker-incubator at 400 rpm.
Following incubation, two samples were withdrawn from each vial. Once the layers had fully partitioned, a syringe was used to draw a sample of the aqueous phase or the n-octanol phase. Samples from each phase were diluted appropriately with deionized or methanol prior to HPLC analysis.

[2] = In vitro transdermal permeation, diffusion cell, hairless mouse skin; type: in vitro ADME, hairless mice
Excerpt: The abdominal skin from male hairless mice (mice of the HRS strain carrying a mutant Hr gene (hr/hr)) aged 6-8 weeks was cleaned of any subcutaneous fat with blood vessels while maintaining the integrity of the viable epidermis and SC. The excised skin was used immediately after preparation and was not stored prior to use.
(§1) A custom made finite dosing diffusion cell (AGB Scientific, Dublin, Ireland, FIG. 1) based upon and modified from the Keshary-Chien type diffusion cell was used for in vitro permeation studies.
(§2) Three to five diffusion cells were used in each permeation experiment and monitoring was performed over a 48 hour period. The cells were linked in series to a thermostatically controlled circulation bath set at 35° C. to mimic human skin surface temperature. Each cell was placed on a stir-plate set at a defined stirring rate of 1,000 rpm. The surface area for permeation provided by each cell was 3.14 cm^2.
(§3) Data collected from each permeation study included:
(§4) 1) the average maximum flux obtained in 48 hours (Jmax),
(§5) 2) the total absorption characterized as the total weight of peptide delivered transdermally into the receiver compartment over a 48 hour period,
(§6) 3) the lag time to detectable flux which was equivalent to the latest sampling time at which no peptide was detectable by HPLC analysis of the receiver solution, and
(§7) 4) an equivalent 48-hour steady state flux was determined by obtaining the slope of the best-fit line for a plot of cumulative flux per unit area versus time (described by McDaid, D. M. et al., Int. J. Pharm., 133:71-83, 1996).
(§8) Fresh hairless mouse skin samples or fresh or freshly thawed pig skin samples were mounted onto the diffusion cell with the SC topmost and in contact with the donor system. A rubber or plastic ring was placed on top of the skin sample to secure it in position. The combination of the diffusion cell top, the skin and the rubber ring was securely fastened together by means of a threaded cap. A recorded volume of receiver solution was added to the receiver compartment and maintained at 35° C. The receiver solution was 60/40 (v/v) PBS/propylene glycol (pH 7.1). The propylene glycol fraction was used to increase the solubility of the somatostatin-fatty acid salts. Previous work reported by Morgan et al. (J. Pharm. Sci., 87:1213-1218, 1998) has shown that a 50/50 water/propylene glycol receptor solution had no detrimental effect on the barrier integrity of both hairless mouse and porcine skin.
The receiver solution was allowed to equilibrate at 35° C. for 30 minutes. […] A narrow-bore hypodermic needle was used to withdraw 1 ml samples from the receiver compartment via the sampling port; at each sampling time, an equal volume of drug-free receiver solution was immediately added back to the receiver compartment. Samples were analyzed by HPLC.
HPLC determination of peptide content in the receiver solution along with the known surface area of skin used (3.14 cm^2) allowed for calculation of transdermal flux (in units of μg/cm^2/hr) for each time point. Panels 1 and 2 of FIG. 2 show flux […] profiles for the myristate, octanoate, decanoate, linoleate, nonanote, acetate and laurate […]
Once lead candidate somatostatin-fatty acid salts had been selected on the basis of in vitro permeation in a DMSO solution, the effect of different solvents and penetration enhancers on permeation was assessed. The concentration of the donor solution corresponded to 5 mg/ml free base peptide for all experiments and all donor solutions were equilibrated at 37° C. for one hour prior to use. These experiments were carried out using hairless mouse skin and pigskin barriers.

[3] = Solubility of somatostatin fatty-acid salts; type: physicochemical; conditions: 24 hours
Method: The solubilities of Compound A and Compound B oleate were determined in deionized water, phosphate-buffered saline (PBS; pH 7.4) and n-octanol. Analysis was carried out by placing an excess of each salt with 1 ml of the selected solvent into four 4 ml sealed HPLC vials. The samples were allowed to equilibrate at 37° C. for 24 hours with shaking. Each of the four dispersions was then filtered through a 0.2 μm nylon membrane (Pall Gelman, Ann Arbor, Mich., U.S.A.). Prior to HPLC analysis, the n-octanol samples were diluted 1:100 with methanol and the PBS and deionized water samples were diluted 1:10 in de-ionized water. Table 7 lists the solubilities of Compound A and Compound B oleate salts in deionized water, PBS and n-octanol.

[4] = Peptide content in upper and lower skin layers after permeation (tape stripping); type: in vitro ADME, hairless mice; conditions: percentage of total applied dose, hairless mouse skin
Method: The quantity of peptide present in the upper SC and lower dermis layers of the hairless mouse skin samples were determined for each concentration of analog tested. To determine analog concentrations in the SC, the skin samples were wiped clean of donor solution, patted dry and stripped twenty times with Sellotape®, using a fresh piece for each stripping. The twenty pieces of Sellotape® were pooled in a 50 ml centrifuge tube and 10 ml of 50/50 (v/v) acetonitrile/0.1M TFA was added. The sample was homogenized at 20,000 rpm for 5 minutes and then filtered. The peptide content was determined using HPLC. To determine peptide content in the dermal layer, the remaining skin sample was cut into fine pieces, homogenized and analyzed as described.

[5] = In vitro transdermal permeation, diffusion cell, pig epidermis; type: in vitro ADME, domestic pigs; conditions: pig epidermis; donor 55% EtOH 40% Water 5% Cineole, 5 mg/ml free base peptide
Method: The viable epidermal layer was removed from the flanks of freshly sacrificed four month-old female domestic pigs. The flank area of each animal was carefully shaved and the upper 200 μm of skin (Meyer, W., et al., Curr. Prob. Dermatol., 7: 39-52, 1978; de Jalón, et al., J. Control. Rel., 75:191-197, 2001) was harvested using an electric dermatome (Robbins Instruments, Chatham, N.J., U.S.A.). Pigskin epidermal specimens were frozen at −18° C. between layers of PBS-soaked tissue paper enclosed in aluminum foil for up to two weeks prior to use in in vitro permeation studies.
as §1, §2, §3, §4, §5, §6, §7, §8
The receiver solution was allowed to equilibrate at 35° C. for 30 minutes. The experiment was initiated by the application of 1 ml of donor solution containing approximately 5 mg free base peptide in DMSO to the skin surface followed by sealing of the donor compartment with Parafilm®. A narrow-bore hypodermic needle was used to withdraw 1 ml samples from the receiver compartment via the sampling port; at each sampling time, an equal volume of drug-free receiver solution was immediately added back to the receiver compartment. Samples were analyzed by HPLC.
HPLC determination of peptide content in the receiver solution along with the known surface area of skin used (3.14 cm^2) allowed for calculation of transdermal flux (in units of μg/cm^2/hr) for each time point. Panels 1 and 2 of FIG. 2 show flux profiles obtained for the oleate salts of Compound A and Compound B in DMSO which far exceeded the flux profiles for the myristate, octanoate, decanoate, linoleate, nonanote, acetate and laurate salts of Compound A as well as the acetate salt of Compound B in DMSO. […]

[6] = 4.3 mg/ml in DMSO +1% (v/v) oleic acid
[7] = donor DMSO, approx. 5 mg/ml free base peptide (4.9 mg/ml Compound A oleate, 5.2 mg/ml Compound A acetate)
[8] = donor DMSO, approx. 5 mg/ml free base peptide (4.9 mg/ml Compound A oleate, 5.2 mg/ml Compound A acetate), 48 hr
[9] = donor 55% EtOH 40% Water 5% Cineole, 5 mg/ml free base peptide
[10] = donor 55/45 (v/v) EtOH/H2O, approx. 5 mg/ml free base peptide
[11] = donor propylene glycol, approx. 5 mg/ml free base peptide

D-2-Nal-c(Cys-Tyr-D-Trp-Lys-Val-Cys)-Thr-NH2 [Compound A di-laurate]
Log KOPBS [1]: 0.854 | O/PBS Coefficient (KOPBS) [1]: 7.15 | Log KOW [1]: 2.943 | O/W Coefficient (KOW) [1]: 876.40

D-2-Nal-c(Cys-Tyr-D-Trp-Lys-Val-Cys)-Thr-NH2 [Compound A di-myristate]
Log KOPBS [1]: 0.806 | O/PBS Coefficient (KOPBS) [1]: 6.40 | Log KOW [1]: 2.610 | O/W Coefficient (KOW) [1]: 407.50

CC(C)[C@@H]1NC(=O)[C@H](CCCCN)NC(=O)[C@@H](Cc2c[nH]c3ccccc23)NC(=O)[C@H](Cc2ccc(O)cc2)NC(=O)[C@@H](NC(=O)[C@H](N)Cc2ccc3ccccc3c2)CSSC[C@@H](C(=O)N[C@H](C(N)=O)[C@@H](C)O)NC1=O [Compound A di-acetate, D-2-Nal-c(Cys-Tyr-D-Trp-Lys-Val-Cys)-Thr-NH2, reference compound]
Jmax [2, 6]: 53.576 μg/cm^2/hr | Jss [2, 6]: 1.873 μg/cm^2/hr | Lag Time [2, 6]: 0.0 h | Total Absorption [2, 6]: 387.78 μg/48 hr | effect of 1% (v/v) free oleic acid on flux ([2]; donor DMSO): increase of flux | Lag Time [2, 7]: 29.5 h | Total Absorption [2, 7]: 48.08 μg/48 hr | Jmax [2, 8]: 0.320 μg/cm^2/hr | Jss [2, 8]: 0.240 μg/cm^2/hr

D-2-Nal-c(Cys-Tyr-D-Trp-Lys-Val-Cys)-Thr-NH2 [Compound A di-linoleate]
Log KOPBS [1]: 0.866 | O/PBS Coefficient (KOPBS) [1]: 7.35 | Log KOW [1]: 1.917 | O/W Coefficient (KOW) [1]: 82.52

CC(C)[C@@H]1NC(=O)[C@H](CCCCN)NC(=O)[C@@H](Cc2c[nH]c3ccccc23)NC(=O)[C@H](Cc2ccc(O)cc2)NC(=O)[C@@H](NC(=O)[C@H](N)Cc2ccc3ccccc3c2)CSSC[C@@H](C(=O)N[C@H](C(N)=O)[C@@H](C)O)NC1=O [Compound A di-oleate, D-2-Nal-c(Cys-Tyr-D-Trp-Lys-Val-Cys)-Thr-NH2]
Jmax ([2]; 8.9 mg/ml free base in DMSO): 24.942 μg/cm^2/hr | Jss ([2]; 8.9 mg/ml free base in DMSO): 3.342 μg/cm^2/hr | Lag Time ([2]; 8.9 mg/ml free base in DMSO): 0.5 h | Total Absorption ([2]; 8.9 mg/ml free base in DMSO): 522.82 μg/48 hr | increase in total peptide flux over 48 hours due to cineole ([2]; 55/40/5 ethanol/water/cineole vs 55/45 ethanol/water): 7.19% | Jmax [2, 9]: 14.100 μg/cm^2/hr | Jss [2, 9]: 6.359 μg/cm^2/hr | Lag Time [2, 9]: 2 h | Total Absorption [2, 9]: 825.35 μg/48 hr | Jmax [2, 10]: 11.343 μg/cm^2/hr | Jss [2, 10]: 5.871 μg/cm^2/hr | Lag Time [2, 10]: 2 h | Total Absorption [2, 10]: 770.02 μg/48 hr | Lag Time [2, 7]: 1.0 h and 1 h | Total Absorption [2, 7]: 448.52 μg/48 hr | Jmax [2, 8]: 19.887 μg/cm^2/hr | Jss [2, 8]: 2.858 μg/cm^2/hr | Jmax [2, 11]: 0.366 μg/cm^2/hr | Jss [2, 11]: 0.318 μg/cm^2/hr | Lag Time [2, 11]: 24 h | Total Absorption [2, 11]: 55.17 μg/48 hr | flux profile in DMSO compared with other salts ([2]; vs myristate, octanoate, decanoate, linoleate, nonanoate, acetate, laurate salts of Compound A and acetate of Compound B): far exceeded | solubility ([3]; deionized water, 37° C., read-out: Solubility DI H2O): 35 µg/mL | solubility ([3]; n-octanol, 37° C., read-out: Solubility n-Octanol): 123000 µg/mL | solubility ([3]; pH 7.4, PBS pH 7.4, 37° C., read-out: Solubility PBS): 40 µg/mL | Wt. % delivered ([4]; 4.9 mg free base in DMSO): 9.23% | Wt. % in lower skin layers ([4]; 4.9 mg free base in DMSO): 7.63% | Wt. % in upper skin layers ([4]; 4.9 mg free base in DMSO): 20.22% | Wt. % delivered ([4]; 8.9 mg free base in DMSO): 5.84% | Wt. % in lower skin layers ([4]; 8.9 mg free base in DMSO): 1.09% | Wt. % in upper skin layers ([4]; 8.9 mg free base in DMSO): 49.93% | Jmax [5]: 9.019 μg/cm^2/hr | Jss [5]: 1.407 μg/cm^2/hr | Lag Time [5]: 1 h | Total Absorption [5]: 231.09 μg/48 hr

From patent publication US20130085105A1, “Transdermal Administration Of Peptides” (The Provost, Fellows and Scholars of the College of Holy …, priority 2010, published 2013)
